Here are results for 19 compounds from ChEMBL document CHEMBL5257037, “Side Chain Cyclized Aromatic Amino Acids: Great Tools as Local Constraints in Peptide and Peptidomimetic Design” (J Med Chem, 2016).

Structures are written as SMILES. Where a SMILES comes first, the peptide text is derived from it. Bridges are numbered along the chain shown (N, C = ends). [ ]: non-standard residue; d: D form. Aic = NC1(C(=O)O)Cc2ccccc2C1; dOrn = NCCC[C@@H](N)C(=O)O; Orn = NCCC[C@H](N)C(=O)O

Test [1] has as its target Angiotensin-converting enzyme (Homo sapiens, UniProt P12821). Put plainly: Inhibition of angiotensin-converting enzyme (unknown origin).
Test [2] has as its target Neprilysin (Homo sapiens, UniProt P08473). Put plainly: Inhibition of neutral endopeptidase (unknown origin).
Test [3] deals with T1, Angiotensin-converting enzyme (Oryctolagus cuniculus, UniProt P12822).
T1 sequence (P12822 whole entry): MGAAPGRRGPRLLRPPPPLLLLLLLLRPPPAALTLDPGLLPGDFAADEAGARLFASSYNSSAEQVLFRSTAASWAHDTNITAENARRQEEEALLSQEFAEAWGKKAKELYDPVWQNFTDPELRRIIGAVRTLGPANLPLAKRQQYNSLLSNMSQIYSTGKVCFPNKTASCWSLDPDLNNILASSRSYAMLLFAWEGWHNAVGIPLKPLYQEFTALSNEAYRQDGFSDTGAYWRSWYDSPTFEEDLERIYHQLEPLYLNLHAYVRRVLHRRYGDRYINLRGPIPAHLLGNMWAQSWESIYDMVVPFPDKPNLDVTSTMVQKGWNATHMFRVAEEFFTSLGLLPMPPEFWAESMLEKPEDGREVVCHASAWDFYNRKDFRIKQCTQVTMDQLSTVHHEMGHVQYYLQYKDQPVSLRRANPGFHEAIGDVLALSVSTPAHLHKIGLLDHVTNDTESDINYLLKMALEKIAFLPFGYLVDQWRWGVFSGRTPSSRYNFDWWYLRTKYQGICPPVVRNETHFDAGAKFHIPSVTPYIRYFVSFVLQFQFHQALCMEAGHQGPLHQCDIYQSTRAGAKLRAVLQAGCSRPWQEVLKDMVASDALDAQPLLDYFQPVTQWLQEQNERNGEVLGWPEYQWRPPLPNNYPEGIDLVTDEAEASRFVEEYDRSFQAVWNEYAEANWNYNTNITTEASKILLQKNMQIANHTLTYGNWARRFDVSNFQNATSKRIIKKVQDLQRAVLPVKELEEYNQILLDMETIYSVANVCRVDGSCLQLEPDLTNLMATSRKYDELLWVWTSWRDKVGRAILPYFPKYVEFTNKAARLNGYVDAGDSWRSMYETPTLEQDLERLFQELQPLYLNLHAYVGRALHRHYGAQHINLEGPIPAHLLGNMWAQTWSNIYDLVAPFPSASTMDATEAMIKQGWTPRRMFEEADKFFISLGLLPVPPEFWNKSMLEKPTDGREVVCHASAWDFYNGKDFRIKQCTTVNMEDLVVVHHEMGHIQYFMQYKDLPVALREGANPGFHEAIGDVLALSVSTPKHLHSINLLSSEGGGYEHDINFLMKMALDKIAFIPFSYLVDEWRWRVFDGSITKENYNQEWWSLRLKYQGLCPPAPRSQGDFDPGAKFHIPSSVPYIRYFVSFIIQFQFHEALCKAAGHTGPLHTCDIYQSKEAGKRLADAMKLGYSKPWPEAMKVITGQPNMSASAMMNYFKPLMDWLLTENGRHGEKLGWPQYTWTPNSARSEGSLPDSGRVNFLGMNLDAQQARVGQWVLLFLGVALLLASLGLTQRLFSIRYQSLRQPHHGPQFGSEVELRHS
Put plainly: Inhibition of rabbit lung angiotensin-converting enzyme. It counts as tissue-based.

The target in test [4] is Substance-P receptor (Homo sapiens, UniProt P25103). Put plainly: Inhibition of [3H]SP binding to human neurokinin receptor 1 expressed in CHO cells. It counts as cell-based.
Test [5] addresses T1, Angiotensin-converting enzyme. Put plainly: Binding affinity to angiotensin-converting enzyme in rabbit lung assessed as inhibition constant. It counts as tissue-based.
Test [6] deals with T2, Neprilysin (Rattus norvegicus, UniProt P07861).
T2 sequence (P07861 whole entry): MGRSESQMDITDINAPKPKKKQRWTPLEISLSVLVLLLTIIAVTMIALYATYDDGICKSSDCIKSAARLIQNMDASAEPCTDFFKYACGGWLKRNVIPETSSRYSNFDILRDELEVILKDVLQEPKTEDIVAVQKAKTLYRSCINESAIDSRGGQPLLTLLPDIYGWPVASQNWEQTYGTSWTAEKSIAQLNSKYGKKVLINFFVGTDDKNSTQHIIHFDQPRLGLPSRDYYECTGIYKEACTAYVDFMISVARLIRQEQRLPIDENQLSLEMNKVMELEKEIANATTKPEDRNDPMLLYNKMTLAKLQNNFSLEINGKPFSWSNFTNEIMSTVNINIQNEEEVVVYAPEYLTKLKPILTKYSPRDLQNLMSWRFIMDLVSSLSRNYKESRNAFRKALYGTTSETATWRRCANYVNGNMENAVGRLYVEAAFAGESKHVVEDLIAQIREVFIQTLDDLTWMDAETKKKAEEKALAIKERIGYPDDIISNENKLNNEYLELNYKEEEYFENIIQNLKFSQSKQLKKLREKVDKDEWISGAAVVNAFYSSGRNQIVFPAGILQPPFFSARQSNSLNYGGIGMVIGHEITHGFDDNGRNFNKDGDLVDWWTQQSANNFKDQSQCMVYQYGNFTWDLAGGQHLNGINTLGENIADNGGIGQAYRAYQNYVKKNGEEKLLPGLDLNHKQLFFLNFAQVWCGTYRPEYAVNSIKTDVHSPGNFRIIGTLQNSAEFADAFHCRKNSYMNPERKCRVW
Put plainly: Binding affinity to rat kidney neutral endopeptidase. It counts as tissue-based.

The target in test [7] is Somatostatin receptor type 2 (Homo sapiens, UniProt P30874). Put plainly: Inhibition of human somatostatin receptor type 2.
Test [8] addresses Somatostatin receptor type 1 (Homo sapiens, UniProt P30872). Put plainly: Inhibition of human somatostatin receptor type 1.
The target in test [9] is Somatostatin receptor type 4 (Homo sapiens, UniProt P31391). Put plainly: Inhibition of human somatostatin receptor type 4.
Test [10] has as its target Somatostatin receptor type 3 (Homo sapiens, UniProt P32745). Put plainly: Inhibition of human somatostatin receptor type 3.
Test [11] has as its target Somatostatin receptor type 5 (Homo sapiens, UniProt P35346). Put plainly: Inhibition of human somatostatin receptor type 5.
Test [12] deals with T3, Somatostatin receptor type 5 (Rattus norvegicus, UniProt P30938).
T3 sequence (P30938 whole entry): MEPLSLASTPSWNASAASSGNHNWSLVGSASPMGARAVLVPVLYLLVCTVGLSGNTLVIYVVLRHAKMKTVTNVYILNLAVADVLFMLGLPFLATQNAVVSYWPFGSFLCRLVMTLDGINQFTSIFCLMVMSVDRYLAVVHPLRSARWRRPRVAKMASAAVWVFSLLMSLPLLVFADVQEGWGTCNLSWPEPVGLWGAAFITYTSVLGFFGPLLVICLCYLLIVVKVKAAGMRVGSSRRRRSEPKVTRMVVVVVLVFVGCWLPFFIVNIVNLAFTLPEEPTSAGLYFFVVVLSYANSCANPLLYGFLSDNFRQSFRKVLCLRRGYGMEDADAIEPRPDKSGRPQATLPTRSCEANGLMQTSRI
Put plainly: Inhibition of rat somatostatin receptor type 5.

Test [13] has as its target T4, Renin (Homo sapiens, UniProt P00797).
T4 sequence (P00797 whole entry): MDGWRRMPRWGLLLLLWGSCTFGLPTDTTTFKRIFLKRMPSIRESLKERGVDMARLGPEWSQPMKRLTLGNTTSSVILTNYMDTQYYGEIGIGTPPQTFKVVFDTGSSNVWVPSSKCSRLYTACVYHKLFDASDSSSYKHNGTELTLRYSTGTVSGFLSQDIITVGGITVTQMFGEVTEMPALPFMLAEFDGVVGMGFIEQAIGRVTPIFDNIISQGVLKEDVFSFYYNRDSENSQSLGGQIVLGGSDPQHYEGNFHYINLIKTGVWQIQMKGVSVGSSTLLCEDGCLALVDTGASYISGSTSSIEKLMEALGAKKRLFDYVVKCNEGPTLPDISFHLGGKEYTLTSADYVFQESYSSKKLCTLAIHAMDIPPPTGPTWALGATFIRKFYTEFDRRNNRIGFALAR
Put plainly: Inhibition of human plasma renin. It counts as cell-free.

The nature of test [14]: Inhibition of angiotensin-converting enzyme (unknown origin).
Test [15] deals with T5, Mu-type opioid receptor (Homo sapiens, UniProt P35372). Put plainly: Binding affinity to mu opioid receptor (unknown origin) assessed as inhibition constant.
The target of test [16] is T6, Delta-type opioid receptor (Homo sapiens, UniProt P41143). Put plainly: Binding affinity to delta opioid receptor (unknown origin) assessed as inhibition constant.
The target of test [17] is T6, Delta-type opioid receptor. Put plainly: Inhibition of DOR (unknown origin).
Test [18] concerns the target T5, Mu-type opioid receptor. Put plainly: Inhibition of MOR (unknown origin).
Test [19] is filed under the species Mus musculus. Put plainly: Inhibition of electrically evoked mouse vas deferens contraction. It counts as functional.

`C[C@H](NC(=O)[C@@H](CS)Cc1ccccc1)C(=O)N1Cc2ccccc2C[C@H]1C(=O)O`: the IC50 (in general, the concentration that gives 50% inhibition) in test [1] stood at 14 nM; in test [2] it was 3.9 nM.

As to `C[C@H](NC(=O)[C@@H](CS)Cc1ccccc1)C(=O)N1c2ccccc2C[C@H]1C(=O)O`, the IC50 in [1] came out at 7.8 nM; in test [2], 2.6 nM.

With `O=C(O)[C@H](CCc1ccccc1)N[C@H]1CCc2cccc3c2N(C1=O)[C@H](C(=O)O)C3`, the IC50 in test [3] was 5.2 nM.

In the case of `CC(=O)NC1(C(=O)OCc2cc(C(F)(F)F)cc(C(F)(F)F)c2)CCc2[nH]c3ccccc3c2C1` (configuration not stated), the Ki (as a rule, the equilibrium dissociation constant of an inhibitor or competing ligand from its target) in test [4] stood at 765 nM.

For `CC(C)C[C@H](NC(=O)CNC(=O)OCc1ccccc1)C(=O)NC1(C(=O)OCc2cc(C(F)(F)F)cc(C(F)(F)F)c2)CNc2[nH]c3ccccc3c2C1` (some centres not stated), in test [4], the affinity corresponds to a Ki of 200 nM.

`O=C(N[C@H]1Cc2ccccc2[C@H]2CCC[C@@H](C(=O)O)N2C1=O)[C@@H](S)Cc1ccccc1`: the Ki in test [5] came out at 0.11 nM; in test [6] it was 0.08 nM.

`CC(C)C[C@H](NC(=O)CNC(=O)OCc1ccccc1)C(=O)N1Cc2[nH]c3ccccc3c2C[C@H]1C(=O)OCc1cc(C(F)(F)F)cc(C(F)(F)F)c1`: the affinity in [4], expressed as Ki, was 63 nM.

On to `CC(=O)N[C@@H](Cc1ccccc1)C(=O)N[C@]1(C)Cc2c([nH]c3ccccc23)CN([C@@H](CCCCN)C(=O)N[C@H](C(N)=O)[C@@H](C)O)C1=O`, for which the IC50 in [7], in [8], in test [9], in [10] and in test [11] was more than 1000 nM in each case.

Consider `CC(=O)N[C@@H](Cc1ccccc1)C(=O)N[C@@H]1Cc2c([nH]c3ccccc23)CN([C@@H](CCCCN)C(=O)N[C@H](C(N)=O)[C@@H](C)O)C1=O`, for which the IC50 in test [8] stood at 253 nM; in test [12] it was 217 nM; in test [9], 36 nM.

For `O=C(N[C@H]1Cc2ccccc2[C@H]2CCC[C@@H](C(=O)O)N2C1=O)[C@H](S)Cc1ccccc1`, the Ki turned out to be 4.5 nM in test [5] and 0.07 nM in test [6].

`CC(=O)N1Cc2[nH]c3ccccc3c2C[C@H]1C(=O)OCc1cc(C(F)(F)F)cc(C(F)(F)F)c1` had a Ki in test [4] of 390 nM.

For the compound `CCCCNC(=O)[C@@H](C[C@H](O)[C@H](CC1CCCCC1)NC(=O)[C@H](CCCC)NC(=O)[C@H](Cc1ccccc1)NC(C)=O)C(C)C`, inhibition in test [13] was half-maximal at 0.84 nM (IC50).

For `CC(CS)C(=O)N1CCc2ccccc2C1C(=O)O` (configuration not stated), in [14], half-maximal inhibition (IC50) was put at 58000 nM.

Compound `CC(CS)C(=O)N1Cc2ccccc2C1C(=O)O` (configuration not stated) yielded an IC50 in test [14] of 14000 nM.

In the case of `CC(=O)N[C@@H](Cc1ccccc1)C(=O)N[C@@H](Cc1c[nH]c2ccccc12)C(=O)N[C@@H](CCCCN)C(=O)N[C@H](C(N)=O)[C@@H](C)O` (Ac-FWKT-NH2), the IC50 in test [7], in test [8], in test [9], in test [10] and in test [11] was more than 1000 nM throughout.

Take `NC(=O)[C@@H]1CCC(=O)NCCC[C@H](NC(=O)[C@@H](N)Cc2ccc(O)cc2)C(=O)NC2(Cc3ccccc3C2)C(=O)N1` (H-Y[Orn][Aic]E-NH2; lactam 2-4): the Ki in test [15] was 4.21 nM; in test [16], 209 nM.

For `C[C@@H](NC(=O)[C@@H](N)Cc1ccc(O)cc1)C(=O)N[C@@H](Cc1ccccc1)C(=O)NCC(N)=O` (H-Y[dA]FG-NH2), the IC50 in test [17] was 1250 nM; in test [18], 36.7 nM.

For the compound `CC(C)[C@H](NC(=O)[C@H](CC(=O)O)NC(=O)C1(NC(=O)[C@@H](C)NC(=O)[C@@H](N)Cc2ccc(O)cc2)Cc2ccccc2C1)C(=O)N[C@H](C(=O)NCC(N)=O)C(C)C` (H-Y[dA][Aic]DVVG-NH2), in test [16], the Ki stood at 4.96 nM. Besides, the IC50 in test [19] is 0.08 nM.

For `NC(=O)[C@@H]1CCC(=O)NCCC[C@@H](NC(=O)[C@@H](N)Cc2ccc(O)cc2)C(=O)N[C@@H](Cc2ccccc2)C(=O)N1` (H-Y[dOrn]FE-NH2; lactam 2-4), the Ki in test [15] turned out to be 0.98 nM; in test [16] it was 3.21 nM.
